Data set [1] has as its target Mushroom tyrosinase (Agaricus bisporus, UniProt O42713+Q00024+C7FF04+C7FF05). As to the kind of experiment: Inhibition of mushroom tyrosinase using tyrosine as substrate incubated for 20 mins followed by substrate addition and measured every 10 mins for 30 mins.
Data set [2] in a line: Inhibition of Elastase (unknown origin) using N-methoxysuccinyl-Ala-Ala-Pro-Val-p-nitroanilide as substrate incubated for 20 mins followed by substrate addition and measured after 40 mins. Details: species or system Homo sapiens.
Compound in data set [3]: COc1cc(C)c2c(=O)c3ccccc3oc2c1OC
As to the kind of experiment: Uncompetitive inhibition of Tyrosinase (unknown origin) assessed as Michaelis-Menten constant at 8 uM using tyrosine as substrate incubated for 20 mins followed by substrate addition and measured every 10 mins for 30 mins by Lineweaver-Burk plot analysis (reference value: […] +/- […] mM). The settings on record: Homo sapiens, time 50.0 min.

Compound in data set [4]: Cc1cc(O)c(O)c2oc3cc(O)ccc3c(=O)c12
In words: Uncompetitive inhibition of Tyrosinase (unknown origin) assessed as maximal velocity at 6.60 uM using tyrosine as substrate incubated for 20 mins followed by substrate addition and measured every 10 mins for 30 mins by Lineweaver-Burk plot analysis (reference value: […] +/- […] /min). The settings on record: Homo sapiens; dose 6.6 µM, time 50.0 min.

Compound in data set [5]: Cc1cc(O)c(O)c2oc3cc(O)ccc3c(=O)c12
In words: Uncompetitive inhibition of Tyrosinase (unknown origin) assessed as Michaelis-Menten constant at 1.65 uM using tyrosine as substrate incubated for 20 mins followed by substrate addition and measured every 10 mins for 30 mins by Lineweaver-Burk plot analysis (reference value: […] +/- […] mM). The settings on record: Homo sapiens, time 50.0 min.

Compound in data set [6]: Cc1cc(O)c(O)c2oc3cc(O)ccc3c(=O)c12
As to the kind of experiment: Uncompetitive inhibition of Tyrosinase (unknown origin) assessed as maximal velocity at 1.65 uM using tyrosine as substrate incubated for 20 mins followed by substrate addition and measured every 10 mins for 30 mins by Lineweaver-Burk plot analysis (reference value: […] +/- […] /min). The settings on record: Homo sapiens, time 50.0 min.

Compound in data set [7]: COc1cc(C)c2c(=O)c3ccccc3oc2c1OC
As to the kind of experiment: Uncompetitive inhibition of Tyrosinase (unknown origin) assessed as maximal velocity at 16 uM using tyrosine as substrate incubated for 20 mins followed by substrate addition and measured every 10 mins for 30 mins by Lineweaver-Burk plot analysis (reference value: […] +/- […] /min). The settings on record: Homo sapiens, time 50.0 min.

Compound in data set [8]: COc1cc(C)c2c(=O)c3ccccc3oc2c1OC
As to the kind of experiment: Uncompetitive inhibition of Tyrosinase (unknown origin) assessed as Michaelis-Menten constant at 16 uM using tyrosine as substrate incubated for 20 mins followed by substrate addition and measured every 10 mins for 30 mins by Lineweaver-Burk plot analysis (reference value: […] +/- […] mM). The settings on record: Homo sapiens, time 50.0 min.

Compound in data set [9]: Cc1cc(O)c(O)c2oc3cc(O)ccc3c(=O)c12
As to the kind of experiment: Uncompetitive inhibition of Tyrosinase (unknown origin) assessed as maximal velocity at 3.30 uM using tyrosine as substrate incubated for 20 mins followed by substrate addition and measured every 10 mins for 30 mins by Lineweaver-Burk plot analysis (reference value: […] +/- […] /min). The settings on record: Homo sapiens; dose 3.3 µM, time 50.0 min.

Compound in data set [10]: Cc1cc(O)c(O)c2oc3cc(O)ccc3c(=O)c12
In words: Uncompetitive inhibition of Tyrosinase (unknown origin) assessed as Michaelis-Menten constant at 13.2 uM using tyrosine as substrate incubated for 20 mins followed by substrate addition and measured every 10 mins for 30 mins by Lineweaver-Burk plot analysis (reference value: […] +/- […] mM). The settings on record: Homo sapiens, time 50.0 min.

Compound in data set [11]: COc1cc(C)c2c(=O)c3ccccc3oc2c1OC
In words: Uncompetitive inhibition of Tyrosinase (unknown origin) assessed as maximal velocity at 8 uM using tyrosine as substrate incubated for 20 mins followed by substrate addition and measured every 10 mins for 30 mins by Lineweaver-Burk plot analysis (reference value: […] +/- […] /min). The settings on record: Homo sapiens, time 50.0 min.

Compound in data set [12]: COc1cc(C)c2c(=O)c3ccccc3oc2c1OC
In words: Uncompetitive inhibition of Tyrosinase (unknown origin) assessed as maximal velocity at 4 uM using tyrosine as substrate incubated for 20 mins followed by substrate addition and measured every 10 mins for 30 mins by Lineweaver-Burk plot analysis (reference value: […] +/- […] /min). The settings on record: Homo sapiens, time 50.0 min.

Compound in data set [13]: COc1cc(C)c2c(=O)c3ccccc3oc2c1OC
In words: Uncompetitive inhibition of Tyrosinase (unknown origin) assessed as Michaelis-Menten constant at 4 uM using tyrosine as substrate incubated for 20 mins followed by substrate addition and measured every 10 mins for 30 mins by Lineweaver-Burk plot analysis (reference value: […] +/- […] mM). The settings on record: Homo sapiens, time 50.0 min.

Compound in data set [14]: Cc1cc(O)c(O)c2oc3cc(O)ccc3c(=O)c12
As to the kind of experiment: Uncompetitive inhibition of Tyrosinase (unknown origin) assessed as maximal velocity at 13.2 uM using tyrosine as substrate incubated for 20 mins followed by substrate addition and measured every 10 mins for 30 mins by Lineweaver-Burk plot analysis (reference value: […] +/- […] /min). The settings on record: Homo sapiens, time 50.0 min.

Compound in data set [15]: Cc1cc(O)c(O)c2oc3cc(O)ccc3c(=O)c12
In words: Uncompetitive inhibition of Tyrosinase (unknown origin) assessed as Michaelis-Menten constant at 6.6 uM using tyrosine as substrate incubated for 20 mins followed by substrate addition and measured every 10 mins for 30 mins by Lineweaver-Burk plot analysis (reference value: […] +/- […] mM). The settings on record: Homo sapiens, time 50.0 min.

Compound in data set [16]: Cc1cc(O)c(O)c2oc3cc(O)ccc3c(=O)c12
As to the kind of experiment: Uncompetitive inhibition of Tyrosinase (unknown origin) assessed as Michaelis-Menten constant at 3.3 uM using tyrosine as substrate incubated for 20 mins followed by substrate addition and measured every 10 mins for 30 mins by Lineweaver-Burk plot analysis (reference value: […] +/- […] mM). The settings on record: Homo sapiens, time 50.0 min.

Compound in data set [17]: COc1cc(C)c2c(=O)c3ccccc3oc2c1OC
As to the kind of experiment: Uncompetitive inhibition of Tyrosinase (unknown origin) assessed as Michaelis-Menten constant at 2 uM using tyrosine as substrate incubated for 20 mins followed by substrate addition and measured every 10 mins for 30 mins by Lineweaver-Burk plot analysis (reference value: […] +/- […] mM). The settings on record: Homo sapiens, time 50.0 min.

Compound in data set [18]: COc1cc(C)c2c(=O)c3ccccc3oc2c1OC
As to the kind of experiment: Uncompetitive inhibition of Tyrosinase (unknown origin) assessed as maximal velocity at 2 uM using tyrosine as substrate incubated for 20 mins followed by substrate addition and measured every 10 mins for 30 mins by Lineweaver-Burk plot analysis (reference value: […] +/- […] /min). The settings on record: Homo sapiens, time 50.0 min.

Regarding `COc1ccc2oc3ccccc3c(=O)c2c1`, in data set [1], the IC50 (in general, the concentration that gives 50% inhibition) was 8.47 µM. On the same count and under the same terms, under `COc1ccc2c(=O)c3ccccc3oc2c1OC` stands 5.12 µM; under `COc1ccc2c(=O)c3ccccc3oc2c1`, 5.14 µM; under `O=c1c2ccccc2oc2ccc(O)cc12`, 5.6 µM.

As for `O=c1c2ccc(O)cc2oc2cc(O)ccc12`, the results for the concentration for half-maximal inhibition (IC50) in data set [1] and in [2] were 4.42 µM and 91.8 µM, respectively. Molecule `COc1ccc2c(=O)c3c(C)cc(OC)c(OC)c3oc2c1` had an IC50 in [1] of 2.24 µM. On the same count and under the same terms, the figure for `COc1cc(C=O)c2c(=O)c3ccc(O)cc3oc2c1OC` is 3.16 µM; for `COc1c(O)ccc2c(=O)c3ccccc3oc12` it is 3.81 µM.

In [1], `O=c1c2ccccc2oc2cc(O)c(O)cc12` showed an IC50 of 5.7 µM. Still for that read-out and setting: the figure for `COc1cc(C(Br)Br)c2c(=O)c3ccccc3oc2c1OC` is 3.37 µM; for `COc1cc2oc3ccccc3c(=O)c2cc1OC` it is 8.29 µM; for `COc1cc(C)c2c(=O)c3ccccc3oc2c1OC` it is 2 µM. Same read-out and setting: the figure for `O=Cc1cc(O)c(O)c2oc3ccccc3c(=O)c12` is 89.37 µM. Still for that read-out and setting: under `Cc1cc(O)c(O)c2oc3cc(O)ccc3c(=O)c12` stands 3.28 µM.

Molecule `COc1cc(C=O)c2c(=O)c3ccccc3oc2c1OC` registered an IC50 in data set [1] of 29.13 µM.

Consider `Cc1cc(O)c(O)c2oc3ccccc3c(=O)c12`, for which, in data set [1], the IC50 was 8.93 µM. On to `O=c1c2ccccc2oc2ccc(O)c(O)c12`, for which the IC50 in [1] was 7.8 µM. Same read-out and setting: under `COc1ccc2c(=O)c3c(C)c(Cl)c(OC)c(OC)c3oc2c1` stands 1.9 µM. On the same count and under the same terms, the figure for `O=c1c2ccccc2oc2c(O)c(O)ccc12` [3,4-DIHYDROXYXANTHONE] is 5.12 µM; for `COc1cccc2oc3ccccc3c(=O)c12` it is 5.14 µM; for `COc1ccc2c(=O)c3c(C)c(Br)c(OC)c(OC)c3oc2c1` it is 5.57 µM.

Turning to `O=c1c2cc(O)ccc2oc2cccc(O)c12`, in data set [1], the IC50 amounted to 4.52 µM. On the same count and under the same terms, under `COc1ccc2oc3ccccc3c(=O)c2c1OC` stands 4.02 µM; under `O=c1c2ccccc2oc2cc(O)ccc12`, 9.26 µM; under `O=c1c2ccccc2oc2c(O)cccc12`, 8.46 µM. In data set [1], `COc1c(O)cc2oc3ccccc3c(=O)c2c1O` showed an IC50 of 3.01 µM. Turning to H-MAAPVCK-OH, half-maximal inhibition in data set [2] (IC50) required 0.26 µM. Take `COc1ccc2c(=O)c3ccccc3oc2c1O`: the IC50 in data set [1] was determined as 5.2 µM. `O=c1c2ccccc2oc2ccccc12` [XANTHONE]: the IC50 in [1] worked out at 8.84 µM. `COc1cccc2c(=O)c3ccccc3oc12` came in with an IC50 in data set [1] of 5.33 µM.

B1: Tyrosinase (Homo sapiens), P14679 (protein)
chain: MLLAVLYCLLWSFQTSAGHFPRACVSSKNLMEKECCPPWSGDRSPCGQLSGRGSCQNILLSNAPLGPQFPFTGVDDRESWPSVFYNRTCQCSGNFMGFNCGNCKFGFWGPNCTERRLLVRRNIFDLSAPEKDKFFAYLTLAKHTISSDYVIPIGTYGQMKNGSTPMFNDINIYDLFVWMHYYVSMDALLGGSEIWRDIDFAHEAPAFLPWHRLFLLRWEQEIQKLTGDENFTIPYWDWRDAEKCDICTDEYMGGQHPTNPNLLSPASFFSSWQIVCSRLEEYNSHQSLCNGTPEGPLRRNPGNHDKSRTPRLPSSADVEFCLSLTQYESGSMDKAANFSFRNTLEGFASPLTGIADASQSSMHNALHIYMNGTMSQVQGSANDPIFLLHHAFVDSIFEQWLRRHRPLQEVYPEANAPIGHNRESYMVPFIPLYRNGDFFISSKDLGYDYSYLQDSDPDSFQDYIKSYLEQASRIWSWLLGAAMVGAVLTALLAGLVSLLCRHKRKQLPEEKQPLLMEKEDYHSLYQSHL
With B1, the Michaelis constant (Km) (as a rule, the substrate concentration at which the rate is half of its maximum) in data set [3] worked out at 27 µM; in data set [5], 63 µM; in [8], 26 µM; in [10] it was 28 µM; in data set [13], 41 µM; in data set [15], 46 µM. The Michaelis constant (Km) amounted to 51 µM in data set [16] and 53 µM in [17]. Further, the Vmax in data set [4] worked out at 0.0032 min⁻¹; in data set [6], 0.0037 min⁻¹; in data set [7], 0.0019 min⁻¹; in data set [9], 0.0035 min⁻¹; in data set [11], 0.0025 min⁻¹; in [12] it was 0.0031 min⁻¹. Besides, the figures for the Vmax in [14] and in [18] were 0.0028 min⁻¹ and 0.0036 min⁻¹, respectively.

Values taken from ChEMBL document CHEMBL4673324, “Xanthones for melanogenesis inhibition: Molecular docking and QSAR studies to understand their anti-tyrosinase activity” (Bioorg Med Chem, 2021).
